Our source for the IC50 values is patent publication US20150353495A1 (PORTOLA PHARMACEUTICALS, INC., priority 2010, published 2015).

Common to all, as to assay type: biochemical
One test has as its target T1, JAK1 (Homo sapiens, UniProt P23458).
T1 construct: 5 μl of catalytic domain recombinant Kinase enzyme+Tyr peptide substrate (Invitrogen, CA); purchased Invitrogen
In words: Z'-LYTE kinase assay JAK1. The protocol:
(§1) JAK and TYK2 tyrosine phosphorylation activity is measured using the Z′-LYTE™ Technology developed by Invitrogen Corporation (Carlsbad, Calif.). For JAK1, JAK2 and JAK3 the Z′-LYTE™ Kinase Assay Kit-Tyr6 Peptide (part number PV4122) was used. For TYK2 the Z′-LYTE™ Kinase Assay Kit-Tyr6 Peptide (part number PV3192) was used. The Z′-LYTE™ biochemical assay employs a fluorescence resonance energy transfer (FRET) coupled-enzyme format and is based on the differential sensitivity of phosphorylated and non-phosphorylated peptides to proteolitic cleavage. The assay uses a synthetic peptide substrate that is labelled with a donor fluorophore (coumarin) and an acceptor fluorophore (fluorescein) that make up a FRET pair. In the primary reaction (the Kinase Reaction), the kinase transfers the γ-phosphate of ATP to a single tyrosine residue on the substrate, while the presence of a kinase inhibitor in the primary reaction suppresses phosphorylation. In the secondary reaction (the Development Reaction), a site-specific protease (the Development Reagent) is added. The development buffer quenches the Kinase Reaction, while the protease recognizes and cleaves non-phosphorylated Z′-LYTE™ peptide substrate. Cleavage disrupts FRET between the donor and acceptor fluorophores on the non-phosphoryleted substrate, while uncleaved, phosphorylated substrate maintains FRET.
(§2) To test the ability of candidate molecules to inhibit JAK tyrosine phosphorylation activity, molecules are reconstituted in 100% DMSO and serially diluted 1:10 in polypropylene v-bottom microtiter plates. The candidate molecules are then diluted 1:25 into kinase buffer and 2.5 μl transferred into duplicate wells of a 384 well low volume black microtiter assay plate (Corning, USA). The final DMSO concentration in the assay is 1%. The kinase reaction contains 2.5 μl of a candidate molecule, 5 μl of catalytic domain recombinant Kinase enzyme+Tyr peptide substrate (Invitrogen, CA) and 2.5 μl ATP (Invitrogen, CA). The kinase reaction is allowed to procede for 1 hour at room temperature. The protease reaction is initiated by the addition of 5 μl Development Reagent (Invitrogen, CA). After 1 hour incubation at room temperature the fluorescence is measured using a FlexStation plate reader (Molecular Devices, Sunnyvale, Calif.).

The target of a further test is T2, JAK2 (Homo sapiens, UniProt O60674).
T2 construct: 5 μl of catalytic domain recombinant Kinase enzyme+Tyr peptide substrate (Invitrogen, CA); purchased Invitrogen
The test can be described thus: Z'-LYTE kinase assay JAK2. The protocol:
as §1, §2

Another test deals with T3, JAK3 (Homo sapiens, UniProt P52333).
T3 construct: 5 μl of catalytic domain recombinant Kinase enzyme+Tyr peptide substrate (Invitrogen, CA); purchased Invitrogen
The test can be described thus: Z'-LYTE kinase assay JAK3. The protocol: as §1, §2

Structures are written as SMILES. Some results are limits rather than exact numbers.

T1 sequence (P23458 875-1153 limits assumed): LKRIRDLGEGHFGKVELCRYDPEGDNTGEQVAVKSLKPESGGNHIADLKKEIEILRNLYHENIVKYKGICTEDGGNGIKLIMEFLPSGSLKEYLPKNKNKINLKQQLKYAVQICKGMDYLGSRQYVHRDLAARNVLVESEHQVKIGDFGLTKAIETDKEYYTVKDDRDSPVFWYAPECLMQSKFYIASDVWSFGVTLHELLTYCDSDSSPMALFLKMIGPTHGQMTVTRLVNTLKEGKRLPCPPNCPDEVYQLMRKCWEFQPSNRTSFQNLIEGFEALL
T2 sequence (O60674 849-1124 limits assumed): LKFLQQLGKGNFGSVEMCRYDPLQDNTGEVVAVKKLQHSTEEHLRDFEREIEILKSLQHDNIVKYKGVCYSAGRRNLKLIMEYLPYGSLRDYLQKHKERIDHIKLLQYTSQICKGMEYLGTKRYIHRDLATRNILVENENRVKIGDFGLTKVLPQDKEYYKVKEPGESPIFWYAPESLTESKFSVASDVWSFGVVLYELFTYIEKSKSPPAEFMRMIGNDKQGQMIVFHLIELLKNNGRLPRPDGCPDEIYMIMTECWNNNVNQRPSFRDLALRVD
T3 sequence (P52333 822-1111 limits assumed): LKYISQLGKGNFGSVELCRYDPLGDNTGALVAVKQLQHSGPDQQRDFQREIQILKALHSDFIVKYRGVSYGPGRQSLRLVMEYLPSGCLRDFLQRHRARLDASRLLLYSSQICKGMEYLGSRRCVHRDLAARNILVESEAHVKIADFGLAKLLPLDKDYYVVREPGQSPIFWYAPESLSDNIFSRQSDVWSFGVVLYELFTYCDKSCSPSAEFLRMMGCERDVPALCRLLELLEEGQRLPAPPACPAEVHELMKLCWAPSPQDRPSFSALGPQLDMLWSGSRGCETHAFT

By IC50 is commonly meant the point on the concentration scale where inhibition reaches its midpoint. A higher IC50 goes with lower potency. For `CC(=O)N1CCN(c2cccc(N(C(C)=O)c3cc(NC4(c5ccccc5)CC4)c(C(N)=O)cn3)c2)CC1` [Example 372, 6-(N-(3-(4-acetylpiperazin-1-yl)phenyl)acetamino)-4-(1-phenylcyclopropylamino)nicotinamide], the IC50 on JAK1, on JAK2 and on JAK3 was over 1000 nM each time.

`NC(=O)c1cnc(Nc2ccc(C(=O)NCC(F)(F)F)cc2)cc1NCc1cncc(F)c1` [Example 313, 4-((5-fluoropyridin-3-yl)methylamino)-6-(4-(2,2,2-trifluoroethylcarbamoyl)phenylamino)nicotinamide]: the results for the half-inhibitory concentration (IC50) on JAK1, against JAK2 and on JAK3 were 100 to 1000 nM, 100 to 1000 nM and 10 to 100 nM, respectively.

Turning to `CN(C)C(=O)c1ccc(Nc2cc(NCc3cccc(F)n3)c(C(N)=O)cn2)cc1` [Example 316, 6-(4-(dimethylcarbamoyl)phenylamino)-4-((6-fluoropyridin-2-yl)methylamino)nicotinamide], the IC50 on JAK1 was 100 to 1000 nM; against JAK2, 100 to 1000 nM; against JAK3, 1 to 10 nM.

Regarding `COC[C@@H](Nc1cc(Nc2ccc(OC)cc2)ncc1C(N)=O)c1ccccc1` [Example 260, (S)-4-(2-methoxy-1-phenylethylamino)-6-(4-methoxyphenylamino)nicotinamide], the IC50 at JAK1 was over 1000 nM; at JAK2, over 1000 nM; against JAK3 it was 10 to 100 nM.

Regarding `N#CCN1CCC(c2ccc(Nc3cc(NCc4cccc(F)c4F)c(C(N)=O)cn3)cc2)CC1` [Example 215, 6-(4-(1-(cyanomethyl)piperidin-4-yl)phenylamino)-4-(2,3-difluorobenzylamino)nicotinamide], the half-maximal inhibitory concentration (IC50) against JAK1 was over 1000 nM; against JAK2 it was 100 to 1000 nM; against JAK3 it was 10 to 100 nM.

Turning to `CC(=O)Nc1cccc(Nc2cc(NC3(c4ccccc4)CC3)c(C(N)=O)cn2)c1` [Example 135, 6-(3-acetamidophenylamino)-4-(1-phenylcyclopropylamino)nicotinamide], the results for the IC50 on JAK1, on JAK2 and on JAK3 were over 1000 nM, over 1000 nM and 100 to 1000 nM, respectively.

In the case of `CCC(=O)N1CCC(c2ccc(Nc3cc(NCc4ccc(F)c(F)c4)c(C(N)=O)cn3)cc2)CC1` [Example 148, 4-(3,4-difluorobenzylamino)-6-(4-(1-propionylpiperidin-4-yl)phenylamino)nicotinamide], the results for the IC50 at JAK1, against JAK2 and at JAK3 were over 1000 nM, 100 to 1000 nM and 100 to 1000 nM, respectively.

Turning to `CN(C)C(=O)c1ccc(Nc2cc(NCc3cccc(-c4cccnc4)c3)c(C(N)=O)cn2)cc1` [Example 414, 6-(4-(dimethylcarbamoyl)phenylamino)-4-(3-(pyridine-3-yl)benzylamino)nicotinamide], the IC50 was 100 to 1000 nM against JAK1, 100 to 1000 nM on JAK2 and 1 to 10 nM at JAK3.

For `CS(=O)(=O)c1ccc(Nc2cc(NCc3cccc(-c4cccnc4)c3)c(C(N)=O)cn2)cc1` [Example 415], the IC50 on JAK1 is over 1000 nM; on JAK2, over 1000 nM; on JAK3 it was 10 to 100 nM.

As for `CN(C)C(=O)C1CN(c2ccc(Nc3cc(NCc4ccccc4)c(C(N)=O)cn3)cc2)C1` [Example 331, 4-(benzylamino)-6-(4-(3-(dimethylcarbamoyl)azetidin-1-yl)phenylamino)nicotinamide], the IC50 on JAK1 lay in the range of 100 to 1000 nM; against JAK2 it was 100 to 1000 nM; against JAK3, 1 to 10 nM.

As to `NC(=O)c1cnc(Nc2ccc(C3CCN(CCF)CC3)cc2)cc1NCc1cccc(F)c1F` [Example 217, 4-(2,3-difluorobenzylamino)-6-(4-(1-(2-fluoroethyl)piperidin-4-yl)phenylamino)nicotinamide], the IC50 against JAK1 fell in the range of 100 to 1000 nM; at JAK2, 10 to 100 nM; against JAK3, 1 to 10 nM.

As for `C[C@@H](Nc1cc(Nc2ccc(C3CCOCC3)cc2)ncc1C(N)=O)C(C)(C)C` [Example 168, (R)-4-(3,3-dimethylbutan-2-ylamino)-6-(4-(tetrahydro-2H-pyran-4-yl)phenylamino)nicotinamide], the IC50 fell in the range of 100 to 1000 nM against JAK1, 10 to 100 nM against JAK2 and 10 to 100 nM against JAK3.

As to `NC(=O)c1cnc(Nc2ccc(C3CCOCC3)cc2)cc1NCC1CCCC1` [Example 154, 4-(cyclopentylmethylamino)-6-(4-(tetrahydro-2H-pyran-4-yl)phenylamino)nicotinamide], the IC50 was over 1000 nM against JAK1, 100 to 1000 nM at JAK2 and 10 to 100 nM against JAK3.

With `Cc1cc(Nc2cc(NCc3cccc(F)c3F)c(C(N)=O)cn2)ccc1C(=O)N1CCOCC1` [Example 455, 4-(2,3-difluorobenzylamino)-6-(3-methyl-4-(morpholine-4-carbonyl)phenylamino)nicotinamide], the IC50 on JAK1 fell in the range of 100 to 1000 nM; at JAK2, 10 to 100 nM; against JAK3, 1 to 10 nM.

`NC(=O)c1cnc(Nc2cccc(C3CCOCC3)c2)cc1NC1CCOCC1` [Example 151, 6-(3-(tetrahydro-2H-pyran-4-yl)phenylamino)-4-(tetrahydro-2H-pyran-4-ylamino)nicotinamide]: the IC50 at JAK1, at JAK2 and on JAK3 was 100 to 1000 nM in each case.

As to `NC(=O)c1cnc(Nc2ccc(C(F)(F)F)cc2)cc1NCc1cncc(F)c1` [Example 305], the results for the IC50 at JAK1, at JAK2 and against JAK3 were over 1000 nM, over 1000 nM and 100 to 1000 nM, respectively.

On to `CC(=O)N1CCC[C@H](CNc2cc(Nc3ccc(C(=O)N(C)C)c(Cl)c3)ncc2C(N)=O)C1` [Example 442, (R)-4-((1-acetylpiperidin-3-yl)methylamino)-6-(3-chloro-4-(dimethylcarbamoyl)phenylamino)nicotinamide], for which the IC50 on JAK1 was over 1000 nM; at JAK2, 100 to 1000 nM; on JAK3, 10 to 100 nM.

`N#CCc1ccc(Nc2cc(NCc3ccccc3)c(C(N)=O)cn2)cc1` [Example 390]: the IC50 was 100 to 1000 nM against JAK1, 100 to 1000 nM against JAK2 and 10 to 100 nM at JAK3.

For the molecule `CC(C)c1ccc(Nc2cc(NCc3ccccc3F)c(C(N)=O)cn2)cc1` [Example 158, 4-(2-fluorobenzylamino)-6-(4-isopropylphenylamino)nicotinamide], the IC50 on JAK1 was over 1000 nM; on JAK2, over 1000 nM; at JAK3 it was 10 to 100 nM.

On to `CN(C)C(=O)c1ccc(Nc2cc(NCc3cccc(-n4cccn4)c3)c(C(N)=O)cn2)cc1` [Example 422, 4-(3-(1H-pyrazol-1-yl)benzylamino)-6-(4-(dimethylcarbamoyl)phenylamino)nicotinamide], for which the IC50 against JAK1 was over 1000 nM; on JAK2 it was 100 to 1000 nM; on JAK3, 10 to 100 nM.

Regarding `NC(=O)c1cnc(Nc2ccc(C3CCOCC3)cc2)cc1NCC1CC1` [Example 153, 4-(cyclopropylmethylamino)-6-(4-(tetrahydro-2H-pyran-4-yl)phenylamino)nicotinamide], the IC50 is over 1000 nM at JAK1, 100 to 1000 nM against JAK2 and 100 to 1000 nM at JAK3.

In the case of `Cn1ccnc1CNc1cc(Nc2ccc(C3CCOCC3)cc2)ncc1C(N)=O` [Example 183, 4-((1-methyl-1H-imidazol-2-yl)methylamino)-6-(4-(tetrahydro-2H-pyran-4-yl)phenylamino)nicotinamide], the values for the IC50 at JAK1, on JAK2 and against JAK3 were 100 to 1000 nM, 100 to 1000 nM and 10 to 100 nM, respectively.

For the molecule `NC(=O)c1cnc(Nc2ccc(C3CCOCC3)cc2)cc1NCc1ccncn1` [Example 181, 4-(pyrimidin-4-ylmethylamino)-6-(4-(tetrahydro-2H-pyran-4-yl)phenylamino)nicotinamide], the IC50 on JAK1, against JAK2 and against JAK3 was over 1000 nM each time.

Take `CC(=O)Nc1ccc(Nc2cc(NCc3cccc4[nH]ccc34)c(C(N)=O)cn2)cc1` [Example 472, 4-((1H-indol-4-yl)methylamino)-6-(4-acetamidophenylamino)nicotinamide]: the IC50 at JAK1 is 1 to 10 nM; against JAK2 it was 10 to 100 nM; against JAK3 it was under 1 nM.

On to `NC(=O)c1cnc(Nc2ccc(C(=O)N3CCOCC3)cc2)cc1NCC1CCCC1` [Example 42, 4-(cyclopentylmethylamino)-6-(4-(morpholine-4-carbonyl)phenylamino)nicotinamide], for which the 50% inhibitory concentration (IC50) against JAK1 was 100 to 1000 nM; at JAK2 it was 100 to 1000 nM; against JAK3 it was 10 to 100 nM.

Take `NC(=O)c1cnc(Nc2ccc(C3CCOCC3)cc2)cc1NC1CCCC1` [Example 150, 4-(cyclopentylamino)-6-(4-(tetrahydro-2H-pyran-4-yl)phenylamino)nicotinamide]: the 50% inhibitory concentration (IC50) at JAK1, against JAK2 and against JAK3 was 100 to 1000 nM throughout.
